Reference: patent publication US4263294A, “Maytansinoids, pharmaceutical compositions thereof and method of use thereof” (Takeda Chemical Industries, Ltd., priority 1978, dated 1981)
In brackets after ≈: the same amount, converted by molar mass.

Assays:
Tetrahymena pyriformis W = test: Antiprotozoal activity, growth inhibition by serial dilution method; assay type: cell-based; details: 28° C., 44 to 48 hours, pH 7.0, serial dilution method
Description: Antiprotozoal activity of compound (I) was assayed with Tetrahymena pyriformis W as the test organism and a medium composed of 20 g tryptose-peptone (Difco Co.), 1 g yeast extract, 2 g glucose, 1000 ml distilled water, 10 ml 1 M phosphate buffer (pH 7.0) as the assay medium. The microorganism was incubated at 28° C. for 44 to 48 hours and the growth inhibitory activity of compound (I) was assayed by the serial dilution method.

[1] = test system: melanoma B-16 tumor cells; test: Antitumor activity, life span prolongation in mice with intraperitoneally transplanted melanoma B-16 (NCI protocol 1,300); assay type: in vivo; details: intraperitoneally once daily for 9 consecutive days
Description: Therapeutic tests were carried out in mice according to NCI-protocol 1,300, Cancer Chemother, Reports, Part 3, 1972, Vol. 3, No. 2, in which melanoma B-16 tumor cells had been intraperitoneally transplanted, compound (I) being administered intraperitoneally once daily for 9 consecutive days.

SMILES | MIC (Tetrahymena pyriformis W) | Antitumor activities B-16 (T/C%) ([1]; 50 μg/kg) | Antitumor activities B-16 (T/C%) ([1]; 100 μg/kg) | Antitumor activities B-16 (T/C%) ([1]; 200 μg/kg) | Antitumor activities B-16 (T/C%) ([1]; 400 μg/kg)
COc1cc2cc(c1Cl)N(C)C(=O)CC(OC(=O)OC(C)C)C1(C)OC1C(C)C1CC(O)(NC(=O)O1)C(OC)C=CC=C(C)C2 (centres unmarked) [Maytansinol 3-isopropylcarbonate, maytansinol 3-isopropylcarbonate] | 4 to 8 µg/mL (≈ 6.14 to 12.3 µM) | 150% | 171% | 171% | 
COc1cc2cc(c1Cl)N(C)C(=O)CC(OC(=O)Nc1ccccc1)C1(C)OC1C(C)C1CC(O)(NC(=O)O1)C(OC)C=CC=C(C)C2 (centres unmarked) [Maytansinol 3-(N-phenyl)carbamate, maytansinol 3-N-phenylcarbamate] | ≥ 8 µg/mL |  | 123% | 151% | 161%
